The source made the active and inactive calls. The rule behind the calls is not given here.
Tests used:
[1] = system: Rattus norvegicus; experiment: Cardioprotective activity in Rattus norvegicus Sprague-Dawley (rat) ischemia-reperfusion injury model assessed as decrease in polymorphonuclear leukocytes infiltration in myocardial tissue at 20 mg/kg, iv measured 10 min prior to reperfusion measured at 6 hr by hematoxylin-eosin staining-based light microscopy relative to untreated control; format: functional, organism-based; set-up: dose 20 mg/kg; settings: Myocardium
[2] = system: Rattus norvegicus; experiment: (§1) Cardioprotective activity in Rattus norvegicus Sprague-Dawley (rat) ischemia-reperfusion injury model assessed as area at risk in myocardial tissue at 20 mg/kg, iv administered 10 min prior to ischemia-reperfusion establishment measured after 6 hr by Evans blue staining-based planimetric analysis (reference value: 49.8 +/- 3.7 %); format: functional, Myocardium
[3] = system: Rattus norvegicus; experiment: as §1, with “decrease” for “area at risk”, “infarct size” for “tissue”, “tetrazolium chloride” for “Evans blue”, “42.6” for “49.8”, “3.8” for “3.7”; format: functional, Myocardium; set-up: scale not given: the % may be the effect or the level left
[4] = system: Rattus norvegicus; experiment: Downregulation of ICAM-1 expression in Rattus norvegicus Sprague-Dawley (rat) heart at 20 mg/kg, iv measured 10 min post LAD ligation by Western blot analysis relative to untreated control; format: functional, organism-based; set-up: dose 20 mg/kg
[5] = system: Rattus norvegicus; experiment: Cardioprotective activity in Rattus norvegicus Sprague-Dawley (rat) ischemia-reperfusion injury model assessed as decrease in myeloperoxidase activation in myocardial tissue at 20 mg/kg, iv measured 10 min prior to reperfusion measured at 6 hr by spectrophotometric analysis relative to untreated control; format: functional, organism-based; set-up: dose 20 mg/kg; settings: Myocardium

For `CC(C)=CCC[C@](C)(O[C@@H]1O[C@H](CO)[C@@H](O)[C@H](O)[C@H]1O)[C@H]1CC[C@]2(C)[C@@H]1[C@H](O)C[C@@H]1[C@@]3(C)CC[C@H](O)C(C)(C)[C@@H]3[C@@H](O[C@@H]3O[C@H](CO)[C@@H](O)[C@H](O)[C@H]3O[C@@H]3O[C@@H](C)[C@H](O)[C@@H](O)[C@H]3O)C[C@]12C` [GINSENOSIDE RE], the Activity [1] was “Active”, the Activity [2] was 50.3% and the Activity [3] was 42.6%. The Activity [4] was “Active” and the Activity [5] was “Active”.

— ChEMBL document CHEMBL3045189, “Ginsenoside Re downregulates ICAM-1 expression, inhibits polymorphonuclear infiltration, and ameliorates ischemia-reperfusion injury” (2010)
